Test results as given in the supplement of paper PMC10307832.

Compound: CC1(C)CCC(CN2CCN(c3ccc(C(=O)NS(=O)(=O)c4ccc(NCC5CCOCC5)c([N+](=O)[O-])c4)c(Oc4cnc5[nH]ccc5c4)c3)CC2)=C(c2ccc(Cl)cc2)C1 [Venetoclax] + COc1cccc2cc(-c3nc([C@H]4CC[C@H](C(=O)O)CC4)n4ncnc(N)c34)[nH]c12 [OSI-027] (partner 0.5 µM)
Assay: relative viability (nuclei count vs DMSO), 5 days (fraction); higher = more cells survive
Conditions: first compound 0.01 µM
Procedure, shortened: (§1)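 A single step with final 0.05% Triton X-100, 1% formaldehyde and 1 ug/ml Hoechst fixed the cells and stained nuclei 5 days after treatment. Lung cancer cell lines in 1536-well plates had been treated by pin tool the day after seeding with one drug alone or a fixed anchor-drug dose plus five library-drug doses (not always all listed) in √10 steps, and nuclei were counted on 4× images. Relative viability is the ratio of nuclei in treated wells to nuclei in vehicle wells, taken as the median of duplicate plates.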

Cell Line | relative viability
NCI-H1944 | 0.483
NCI-H2009 | 0.655
SW 1573 | 0.573
ABC-1 | 0.569
NCI-H358 | 0.747
NCI-H727 | 0.68
SK-LU-1 | 0.38

Same assay, conditions: first compound 0.03162 µM

Cell Line | relative viability
NCI-H1944 | 0.431
NCI-H2009 | 0.668
SW 1573 | 0.658
ABC-1 | 0.536
NCI-H358 | 0.841
NCI-H727 | 0.762
SK-LU-1 | 0.436

Same assay, conditions: first compound 0.1 µM

Cell Line | relative viability
NCI-H1944 | 0.378
NCI-H2009 | 0.602
SW 1573 | 0.585
ABC-1 | 0.444
NCI-H358 | 0.697
NCI-H727 | 0.525
SK-LU-1 | 0.345

Same assay, conditions: first compound 0.3162 µM

Cell Line | relative viability
NCI-H1944 | 0.411
NCI-H2009 | 0.624
SW 1573 | 0.506
ABC-1 | 0.488
NCI-H358 | 0.83
NCI-H727 | 0.63
SK-LU-1 | 0.365

Same assay, conditions: first compound 1 µM

Cell Line | relative viability
NCI-H1944 | 0.376
NCI-H2009 | 0.573
SW 1573 | 0.529
ABC-1 | 0.442
NCI-H358 | 0.695
NCI-H727 | 0.723
SK-LU-1 | 0.329

Compound: Cn1cnc2c(F)c(Nc3ccc(Br)cc3Cl)c(C(=O)NOCCO)cc21 [Selumetinib] + N=C(N)NC(=N)NCCc1ccccc1 [Phenformin] (partner 250 µM)
Assay: as above
Conditions: first compound 0.02 µM
Procedure, shortened: as §1

Cell Line | relative viability
NCI-H1944 | 0.192
NCI-H2009 | 0.428
SW 1573 | 0.291
ABC-1 | 0.228
NCI-H358 | 0.211
NCI-H727 | 0.455
SK-LU-1 | 0.536

Same assay, conditions: first compound 0.06325 µM

Cell Line | relative viability
NCI-H1944 | 0.195
NCI-H2009 | 0.359
SW 1573 | 0.275
ABC-1 | 0.231
NCI-H358 | 0.175
NCI-H727 | 0.381
SK-LU-1 | 0.484

Same assay, conditions: first compound 0.2 µM

Cell Line | relative viability
NCI-H1944 | 0.157
NCI-H2009 | 0.29
SW 1573 | 0.276
ABC-1 | 0.234
NCI-H358 | 0.183
NCI-H727 | 0.375
SK-LU-1 | 0.505

Same assay, conditions: first compound 0.6325 µM

Cell Line | relative viability
NCI-H1944 | 0.168
NCI-H2009 | 0.217
SW 1573 | 0.212
ABC-1 | 0.25
NCI-H358 | 0.158
NCI-H727 | 0.355
SK-LU-1 | 0.239

Compound: CC1(C)CCC(CN2CCN(c3ccc(C(=O)NS(=O)(=O)c4ccc(NCC5CCOCC5)c([N+](=O)[O-])c4)c(Oc4cnc5[nH]ccc5c4)c3)CC2)=C(c2ccc(Cl)cc2)C1 [Venetoclax] + N=C(N)NC(=N)NCCc1ccccc1 [Phenformin] (partner 250 µM)
Assay: as above
Conditions: first compound 0.01 µM
Procedure, shortened: as §1

Cell Line | relative viability
NCI-H1944 | 0.216
NCI-H2009 | 0.48
SW 1573 | 0.425
ABC-1 | 0.234
NCI-H358 | 0.369
NCI-H727 | 0.509
SK-LU-1 | 0.537

Same assay, conditions: first compound 0.03162 µM

Cell Line | relative viability
NCI-H1944 | 0.197
NCI-H2009 | 0.459
SW 1573 | 0.373
ABC-1 | 0.269
NCI-H358 | 0.291
NCI-H727 | 0.63
SK-LU-1 | 0.613

Same assay, conditions: first compound 0.1 µM

Cell Line | relative viability
NCI-H1944 | 0.183
NCI-H2009 | 0.439
SW 1573 | 0.327
ABC-1 | 0.236
NCI-H358 | 0.282
NCI-H727 | 0.504
SK-LU-1 | 0.526

Same assay, conditions: first compound 0.3162 µM

Cell Line | relative viability
NCI-H1944 | 0.212
NCI-H2009 | 0.446
SW 1573 | 0.47
ABC-1 | 0.241
NCI-H358 | 0.406
NCI-H727 | 0.625
SK-LU-1 | 0.531

Same assay, conditions: first compound 1 µM

Cell Line | relative viability
NCI-H1944 | 0.205
NCI-H2009 | 0.337
SW 1573 | 0.392
ABC-1 | 0.228
NCI-H358 | 0.325
NCI-H727 | 0.526
SK-LU-1 | 0.505

Compound: CC1(C)CCC(CN2CCN(c3ccc(C(=O)NS(=O)(=O)c4ccc(NCC5CCOCC5)c([N+](=O)[O-])c4)c(Oc4cnc5[nH]ccc5c4)c3)CC2)=C(c2ccc(Cl)cc2)C1 [Venetoclax] + CC(=O)c1c(C)c2cnc(Nc3ccc(N4CCNCC4)cn3)nc2n(C2CCCC2)c1=O [Palbociclib] (partner 0.5 µM)
Assay: as above
Conditions: first compound 0.01 µM
Procedure, shortened: as §1

Cell Line | relative viability
NCI-H1944 | 0.401
NCI-H2009 | 0.264
SW 1573 | 0.337
ABC-1 | 0.802
NCI-H358 | 0.131
NCI-H727 | 0.655
SK-LU-1 | 0.405

Same assay, conditions: first compound 0.03162 µM

Cell Line | relative viability
NCI-H1944 | 0.314
NCI-H2009 | 0.228
SW 1573 | 0.422
ABC-1 | 0.796
NCI-H358 | 0.114
NCI-H727 | 0.586
SK-LU-1 | 0.403

Same assay, conditions: first compound 0.1 µM

Cell Line | relative viability
NCI-H1944 | 0.314
NCI-H2009 | 0.258
SW 1573 | 0.377
ABC-1 | 0.564
NCI-H358 | 0.13
NCI-H727 | 0.658
SK-LU-1 | 0.35

Same assay, conditions: first compound 0.3162 µM

Cell Line | relative viability
NCI-H1944 | 0.288
NCI-H2009 | 0.216
SW 1573 | 0.36
ABC-1 | 0.618
NCI-H358 | 0.13
NCI-H727 | 0.82
SK-LU-1 | 0.403

Same assay, conditions: first compound 1 µM

Cell Line | relative viability
NCI-H1944 | 0.299
NCI-H2009 | 0.203
SW 1573 | 0.362
ABC-1 | 0.797
NCI-H358 | 0.131
NCI-H727 | 0.651
SK-LU-1 | 0.372
